Laboratory results taken from patent US4219657A, “Dibenzothiophenes” (Hoffmann-La Roche Inc., priority 1977, dated 1980).

Legend:
mice = assay: analgesic activity, reaction time of mice on a hot plate; type: in vivo; conditions: Mus musculus; male mice; oral; hot plate 55±0.5° C.; combined reaction time average at 30, 60 and 90 minutes
Protocol: The method determines the reaction time of mice dropped onto a hot plate maintained at 55±0.5° C. Six groups of male mice (5 mice/group) weighing between 20-30 grams are utilized. The initial reaction time of these mice is determined once, and the reaction time of each group is then averaged. The mice are then administered the vehicle and/or the compound to be tested by the oral, intraperitoneal or subcutaneous route. The average reaction time of each group is determined again at 30, 60 and 90 minutes after compound administration and is compared to controls. Reaction time is recorded as percent changes from control. All groups are averaged before and after treatment. A combined reaction time average (recorded as percent change of reaction time threshhold from controls) for all three periods is plotted against does on graph paper, and a curve is drawn. The ED50 is read from this curve.

[1] = tested on: Albino rats of Hart Strain; assay: anti-inflammatory activity, volume of edema after Mycobacterium butyricum adjuvant injected into the right hind foot; type: in vivo; conditions: Rattus norvegicus, po, dosage of 0.03 gm. p.o., treated daily for 5 consecutive days, edema 96 hours after adjuvant, read-out: ED30 (dose required to produce a 30% reduction in edema)
Protocol: The test animals are given 10 mls. of vehicle^1, which contains the test compound per kg. of body weight. The animals are treated daily for 5 consecutive days. Three hours after the first treatment, 0.05 ml. of an 0.5% suspension of heat killed dessiccated Mycobacterium butyricum in U.S.P. olive oil, which has been steam sterilized for 30 minutes, is injected into the right hind foot of each rat. The paw volume is measured immediately after the injection of the adjuvant and again 96 hours later. The difference is recorded as volume of edema. The paw volume is measured by immersion of the paw into a column of mercury to an ink mark exactly at the level of the lateral malleolus. Percent inhibition is calculated by dividing the average control edema minus the average treatment edema by the average control edema times 100. The percent inhibition is plotted against dose on semi-logarithmic probability paper and the dose required to produce a 30% reduction in edema is estimated therefrom and is expressed as ED30.
^1 Hilgar, A. G. and Hummel, D. J.: Endocrine Bioassay Data. No. 1, p. 15, August 1964 (Cancer Chemotherapy National Service Center, N.I.H.)

O=C(O)Cc1ccc2c(c1)sc1ccc(Cl)cc12 [8-chloro-dibenzothiophene-3-acetic acid]
ED50 (mice): 120 mg/kg | ED30 [1]: 1.8 mg/kg/day
